Data as given in PubChem BioAssay (NCI).
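Five concentrations, 48 hours, 96-well plates. GI50: concentration for 50% inhibition of growth. At the TGI there is no net growth.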

Assays:
Assay in all cases: growth of human tumour cells (NCI), 48 h
OVCAR-4 ovarian = system: OVCAR-4 ovarian
SNB-19 CNS = system: SNB-19 CNS
UACC-257 melanoma = system: UACC-257 melanoma
HT29 colon = system: HT29 colon
SF-295 CNS = system: SF-295 CNS
UACC-62 melanoma = system: UACC-62 melanoma
SNB-75 CNS = system: SNB-75 CNS
786-0 renal = system: 786-0 renal
HS 578T breast = system: HS 578T breast
ACHN renal = system: ACHN renal
UO-31 renal = system: UO-31 renal
KM12 colon = system: KM12 colon
MOLT-4 leukemia = system: MOLT-4 leukemia
SW-620 colon = system: SW-620 colon
RXF 393 renal = system: RXF 393 renal
M14 melanoma = system: M14 melanoma
SK-MEL-2 melanoma = system: SK-MEL-2 melanoma
SK-OV-3 ovarian = system: SK-OV-3 ovarian
IGROV1 ovarian = system: IGROV1 ovarian
MCF7 breast = system: MCF7 breast
PC-3 prostate = system: PC-3 prostate
SF-268 CNS = system: SF-268 CNS
CAKI-1 renal = system: CAKI-1 renal
NCI/ADR-RES ovarian = system: NCI/ADR-RES ovarian
MALME-3M melanoma = system: MALME-3M melanoma
NCI-H522 lung = system: NCI-H522 lung
HCT-15 colon = system: HCT-15 colon
NCI-H23 lung = system: NCI-H23 lung
HOP-62 NSCLC = system: HOP-62 NSCLC
SR leukemia = system: SR leukemia
MDA-MB-435 = system: MDA-MB-435
HCT-116 colon = system: HCT-116 colon
A498 renal = system: A498 renal
HCC-2998 colon = system: HCC-2998 colon
DU-145 prostate = system: DU-145 prostate
NCI-H226 lung = system: NCI-H226 lung
OVCAR-3 ovarian = system: OVCAR-3 ovarian
A549 NSCLC = system: A549 NSCLC
SK-MEL-28 melanoma = system: SK-MEL-28 melanoma
BT-549 breast = system: BT-549 breast
SF-539 CNS = system: SF-539 CNS
NCI-H460 lung = system: NCI-H460 lung
OVCAR-5 ovarian = system: OVCAR-5 ovarian
U251 CNS = system: U251 CNS
COLO 205 colon = system: COLO 205 colon
MDA-MB-231 breast = system: MDA-MB-231 breast
LOX IMVI melanoma = system: LOX IMVI melanoma
HOP-92 NSCLC = system: HOP-92 NSCLC
OVCAR-8 ovarian = system: OVCAR-8 ovarian
HL-60(TB) leukemia = system: HL-60(TB) leukemia
SN12C renal = system: SN12C renal
K-562 leukemia = system: K-562 leukemia
RPMI-8226 leukemia = system: RPMI-8226 leukemia
TK-10 renal = system: TK-10 renal
CCRF-CEM leukemia = system: CCRF-CEM leukemia

Cc1cc(C)c(C#N)c(SCC(=O)c2sc3c(C#N)c(C)cc(C)[n+]3c2[O-])n1
GI50 (OVCAR-4 ovarian): 2240 nM | TGI (OVCAR-4 ovarian): > 100 µM | GI50 (SNB-19 CNS): 504 nM | TGI (SNB-19 CNS): > 100 µM | GI50 (UACC-257 melanoma): 531 nM | TGI (UACC-257 melanoma): > 100 µM | GI50 (HT29 colon): 329 nM | TGI (HT29 colon): 1760 nM | GI50 (SF-295 CNS): 307 nM | TGI (SF-295 CNS): > 29.3 µM | GI50 (UACC-62 melanoma): 559 nM | TGI (UACC-62 melanoma): > 100 µM | GI50 (SNB-75 CNS): 336 nM | TGI (SNB-75 CNS): > 27.2 µM | GI50 (786-0 renal): 692 nM | TGI (786-0 renal): > 52.6 µM | GI50 (HS 578T breast): 335 nM | TGI (HS 578T breast): > 100 µM | GI50 (ACHN renal): 725 nM | TGI (ACHN renal): > 100 µM | GI50 (UO-31 renal): 1140 nM | TGI (UO-31 renal): > 100 µM | GI50 (KM12 colon): 401 nM | TGI (KM12 colon): > 100 µM | GI50 (MOLT-4 leukemia): 596 nM | TGI (MOLT-4 leukemia): > 100 µM | GI50 (SW-620 colon): 340 nM | TGI (SW-620 colon): > 100 µM | GI50 (RXF 393 renal): 238 nM | TGI (RXF 393 renal): 777 nM | GI50 (M14 melanoma): 309 nM | GI50 (SK-MEL-2 melanoma): 624 nM | TGI (SK-MEL-2 melanoma): 56.2 µM | GI50 (SK-OV-3 ovarian): 678 nM | TGI (SK-OV-3 ovarian): > 100 µM | GI50 (IGROV1 ovarian): 1100 nM | TGI (IGROV1 ovarian): > 100 µM | GI50 (MCF7 breast): 166 nM | TGI (MCF7 breast): > 100 µM | GI50 (PC-3 prostate): 436 nM | TGI (PC-3 prostate): > 100 µM | GI50 (SF-268 CNS): 1130 nM | TGI (SF-268 CNS): > 100 µM | GI50 (CAKI-1 renal): 617 nM | TGI (CAKI-1 renal): > 100 µM | GI50 (NCI/ADR-RES ovarian): 366 nM | TGI (NCI/ADR-RES ovarian): 17.8 µM | GI50 (MALME-3M melanoma): 4.24 µM | TGI (MALME-3M melanoma): > 100 µM | GI50 (NCI-H522 lung): 244 nM | TGI (NCI-H522 lung): 692 nM | GI50 (HCT-15 colon): 242 nM | TGI (HCT-15 colon): > 100 µM | GI50 (NCI-H23 lung): 697 nM | TGI (NCI-H23 lung): > 100 µM | GI50 (HOP-62 NSCLC): 4.17 µM | TGI (HOP-62 NSCLC): > 100 µM | GI50 (SR leukemia): 228 nM | TGI (SR leukemia): > 100 µM | GI50 (MDA-MB-435): 97.9 nM | TGI (MDA-MB-435): 538 nM | GI50 (HCT-116 colon): 367 nM | TGI (HCT-116 colon): > 100 µM | GI50 (A498 renal): 135 nM | TGI (A498 renal): 2070 nM | GI50 (HCC-2998 colon): 867 nM | TGI (HCC-2998 colon): > 100 µM | GI50 (DU-145 prostate): 472 nM | GI50 (NCI-H226 lung): 1330 nM | TGI (NCI-H226 lung): > 100 µM | GI50 (OVCAR-3 ovarian): 340 nM | TGI (OVCAR-3 ovarian): 1080 nM | GI50 (A549 NSCLC): 474 nM | TGI (A549 NSCLC): > 100 µM | GI50 (SK-MEL-28 melanoma): 1410 nM | TGI (SK-MEL-28 melanoma): > 100 µM | GI50 (BT-549 breast): 859 nM | TGI (BT-549 breast): > 100 µM | GI50 (SF-539 CNS): 88.1 nM | TGI (SF-539 CNS): 501 nM | GI50 (NCI-H460 lung): 362 nM | TGI (NCI-H460 lung): > 100 µM | GI50 (OVCAR-5 ovarian): 607 nM | TGI (OVCAR-5 ovarian): > 100 µM | GI50 (U251 CNS): 374 nM | TGI (U251 CNS): 98.8 µM | GI50 (COLO 205 colon): 383 nM | TGI (COLO 205 colon): 6.25 µM | GI50 (MDA-MB-231 breast): 890 nM | TGI (MDA-MB-231 breast): > 100 µM | GI50 (LOX IMVI melanoma): 750 nM | TGI (LOX IMVI melanoma): > 100 µM | GI50 (HOP-92 NSCLC): 514 nM | TGI (HOP-92 NSCLC): > 50.7 µM | GI50 (OVCAR-8 ovarian): 513 nM | TGI (OVCAR-8 ovarian): > 100 µM | GI50 (HL-60(TB) leukemia): 277 nM | TGI (HL-60(TB) leukemia): 892 nM | GI50 (SN12C renal): 534 nM | TGI (SN12C renal): > 100 µM | GI50 (K-562 leukemia): 376 nM | TGI (K-562 leukemia): > 100 µM | GI50 (RPMI-8226 leukemia): 491 nM | TGI (RPMI-8226 leukemia): > 100 µM | GI50 (TK-10 renal): 1500 nM | TGI (TK-10 renal): > 100 µM | GI50 (CCRF-CEM leukemia): 333 nM | TGI (CCRF-CEM leukemia): > 100 µM
